Measured values published in the Kinase Knowledgebase extract (Sharma et al. 2016).

biological target: PIK3CG (human) (UniProt P48736); assay: Assessment of PIK3CG Kinase Activity
Sequence (P48736 whole entry, looked up): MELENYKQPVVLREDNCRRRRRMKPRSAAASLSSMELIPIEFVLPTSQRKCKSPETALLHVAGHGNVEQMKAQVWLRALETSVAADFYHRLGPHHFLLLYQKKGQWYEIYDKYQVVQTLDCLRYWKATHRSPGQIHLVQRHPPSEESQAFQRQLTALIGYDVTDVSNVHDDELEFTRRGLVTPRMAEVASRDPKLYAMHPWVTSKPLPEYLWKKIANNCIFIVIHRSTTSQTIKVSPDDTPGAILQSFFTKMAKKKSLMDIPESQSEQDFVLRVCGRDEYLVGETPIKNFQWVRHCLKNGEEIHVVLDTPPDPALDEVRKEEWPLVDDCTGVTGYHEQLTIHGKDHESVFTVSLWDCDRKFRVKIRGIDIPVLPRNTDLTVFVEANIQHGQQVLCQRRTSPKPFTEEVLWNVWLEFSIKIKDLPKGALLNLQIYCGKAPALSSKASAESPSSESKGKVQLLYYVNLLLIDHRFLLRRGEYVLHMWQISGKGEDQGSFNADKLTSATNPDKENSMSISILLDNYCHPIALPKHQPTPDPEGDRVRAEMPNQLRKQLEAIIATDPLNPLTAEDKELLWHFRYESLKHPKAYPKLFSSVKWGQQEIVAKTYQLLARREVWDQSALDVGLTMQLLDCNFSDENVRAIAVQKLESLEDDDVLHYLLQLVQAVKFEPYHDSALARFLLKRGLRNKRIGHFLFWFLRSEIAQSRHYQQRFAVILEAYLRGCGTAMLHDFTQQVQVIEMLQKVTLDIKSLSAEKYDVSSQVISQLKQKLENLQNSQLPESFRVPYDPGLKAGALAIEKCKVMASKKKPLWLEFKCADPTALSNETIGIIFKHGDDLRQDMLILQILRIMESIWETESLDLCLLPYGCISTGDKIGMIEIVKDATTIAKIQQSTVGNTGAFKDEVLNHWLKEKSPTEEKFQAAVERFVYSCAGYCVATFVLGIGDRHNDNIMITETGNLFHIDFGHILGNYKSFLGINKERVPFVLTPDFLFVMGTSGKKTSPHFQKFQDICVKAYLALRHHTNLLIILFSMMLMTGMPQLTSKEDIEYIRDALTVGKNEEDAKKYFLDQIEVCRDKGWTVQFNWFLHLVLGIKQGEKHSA

SMILES | IC50
CC(=O)Nc1nc2c(s1)-c1nc(-c3cc(C#CC4CCN(C(=O)NC5CCCC5)CC4)ccc3Cl)ncc1CC2 | < 600 nM
CC(=O)Nc1nc2c(s1)-c1nc(-c3cc(C#CCN4CCNC(=O)C4)ccc3Cl)ncc1CC2 | < 600 nM
COC1(C#Cc2ccc(Cl)c(-c3ncc4c(n3)-c3sc(NC(C)=O)nc3CC4)c2)CCCCC1 | < 600 nM
CC(=O)Nc1nc2c(s1)-c1nc(-c3cc(C#CCNC(=O)CC4CCCCC4)ccc3Cl)ncc1CC2 | < 600 nM

Second part, the compound after the results:

IC50 | SMILES
< 600 nM | CC(=O)Nc1nc2c(s1)-c1nc(-c3cc(C#CC4CCN(C(=O)N5CCCC5)CC4)ccc3Cl)ncc1CC2
< 600 nM | CC(=O)Nc1nc2c(s1)-c1nc(-c3cc(C#CCNC(=O)C4CCCC4)ccc3Cl)ncc1CC2
< 600 nM | C=CC#Cc1ccc(Cl)c(-c2ncc3c(n2)-c2sc(NC(C)=O)nc2CC3)c1
< 600 nM | COC1(C#Cc2ccc(F)c(-c3ncc4c(n3)-c3sc(NC(C)=O)nc3CC4)c2)CCN(C2CCCC2)CC1
